We go through two compounds from ChEMBL document CHEMBL5236665, “Accumulation of lankamycin derivative with a branched-chain sugar from a blocked mutant of chalcose biosynthesis in Streptomyces rochei 7434AN4” (2023).

The test system of test [1] is Micrococcus luteus. Description: Antimicrobial activity against Micrococcus luteus assessed as inhibition of microbial growth at 0.03 to 3.33 ug/ml. It is filed as functional. Further details: scale not given: the % may be the effect or the level left. To be noted: dose 0.03-3.33 µg/ml; at 0.03 to 3.33 µg/mL.
For test [2], the system named is Micrococcus luteus. Nature of the test: Antimicrobial activity against Micrococcus luteus assessed as inhibition of microbial growth. It is filed as functional.

Consider `CO[C@]1(C)C[C@H](O[C@H]2[C@H](C)[C@@H](O[C@@H]3O[C@H](C)C[C@](O)(C(C)=O)[C@H]3O)[C@@H](C)C[C@](C)(O)C(=O)[C@H](C)[C@@H](OC(C)=O)[C@@H](C)[C@@H]([C@@H](C)[C@H](C)O)OC(=O)[C@@H]2C)O[C@@H](C)[C@H]1OC(C)=O`, for which the Activity in the test on Micrococcus luteus [1] is reported as 50%.

The term MIC denotes the lowest concentration that inhibits growth of the organism. Take `CO[C@H]1C[C@@H](C)O[C@@H](O[C@@H]2[C@@H](C)[C@H](O[C@H]3C[C@@](C)(OC)[C@H](OC(C)=O)[C@H](C)O3)[C@@H](C)C(=O)O[C@H]([C@@H](C)[C@H](C)O)[C@H](C)[C@H](OC(C)=O)[C@@H](C)C(=O)[C@@](C)(O)C[C@@H]2C)[C@@H]1O`: in the test with Micrococcus luteus [2], the minimal inhibitory concentration (MIC) was determined as 1 µg/mL.
